Patent US6544952B1, “Synthesis of glycoconjugates of the globo-H epitope and uses thereof” (Sloan-Kettering Institute for Cancer Research, priority 1994, dated 2003)
Like-named read-outs stand apart in the source and are kept apart here.

What was measured:
[1] = system: MAb MBr1 with breast cancer cell lines such as MCF-7; assay: flow cytometry inhibition assay of mAb MBr1 reactivity with MCF-7; assay type: cell-based; details: for inhibition of reactivity of MAb MBr1 with breast cancer cell lines such as MCF-7: 8 μg/ml of preparation
Description: By Thin Layer Chromatography (TLC) the 2 preparations migrate as similar single bands. […] The high level of reactivity of the β structure with mAb MBr1 was confirmed using flow cytometry inhibition assays. Reactivity of MAb MBr1 with breast cancer cell lines such as MCF-7 was 98% inhibited by 8 μg/ml of the β linkage preparation but was only 6% inhibited by 8 μg of the α-linkage preparation.
(§1) The breast tumor glycolipid associated antigen 2 (See FIG. 24) isolated by Hakomori and co-workers from MCF-7 cells, and termed globe H, constituted a promising possibility for exploration (Kannagi, R., et al., J. Biol. Chem. 1983, 258, 8934; Bremer, G., et al., J. Biol. Chem. 1984 259, 14773). Early studies in this area were facilitated by the immunocharacterization of the antigen by the murine monoclonal antibody Mbr1 (Menard, S., et al., Cancer Res. 1983, 43, 1295). Previously, we had described the total synthesis of the hexacyclic globo H glycal 1 (See FIG. 24) by the method of glycal assembly (See FIG. 24) (Bilodeau, M.T., et al., J. Am. Chem. Soc. 1995 117, 7840; Park, et al., J. Am. Chem. Soc. 1996, 118, 11488). This system was carried forward to reach antigen 2 (See FIG. 24), whose structure assignment was verified by unambiguous spectroscopic corroboration through this synthesis.

[2] = system: antisera binding to globo H antigen 2; assay: inhibition of binding of anti-globo H antisera to globo H antigen 2 (ELISA); design: species or system mice
From the text: As an indication of specificity, we conducted assays with compounds 2-8 of FIGS. 24 and 25 to determine their ability to inhibit the binding of antisera to the fully synthetic globo H antigen 2 (FIG. 28). […] Partial inhibition resulted from truncated globo H compounds, but not with unrelated compounds such as ganglioside GD3. These findings are consistent with a polyclonal serological response in which different antibodies react with different portions of compound 2.

[3] = system: mAb MBr1; assay: binding to mAb MBr1, mapping of structural requirements; design: species or system murine
From the text: as §1
We then built upon the logic of our synthesis to prepare congeners of the compound and to use them to map the structural requirements for binding to the mAb MBr1.

[4] = system: MBr1 monoclonal antibody; assay: Immune TLC with monoclonal antibody MBr1; assay type: binding, murine; details: comparable staining with 1/10 the amount of antigen
[5] = system: mice (antibodies against the immunizing antigen); assay: immunization of mice with Le^y conjugates 17c and 32c, ELISA antibody titer; assay type: in vivo; details: one set of 5 mice; graphs J-L
Description: The stage was set for immunizations with conjugates 17c and 32c. The immunizations with the BSA conjugate 17c were carried out on two sets of 5 mice and the immunizations with the ceramide conjugate 32c were carried out on one set of 5 mice. An enzyme-linked immunosorbant assay (ELISA) was used to measure antibody titer (FIG. 20(b)). Three different ELISA experiments were performed to measure antibody titer. The first is the measure of total antibody response (aIg), that is the summation of IgM and IgG antibodies, as shown in graphs A, D, G. and J of FIGS. 21(a) and (b). The other two assays measure IgM and IgG antibodies separately as indicated in the graphs. The ELISA assay (see FIG. 20(b)) involves the immobilization of a test antigen in a microtiter well. The serum to be tested for antibodies is placed in the well. Any antibodies in the serum recognizing the test antigen will remain in the well after thorough washing. Next, modified anti-mouse Ig, IgM, or IgG antibodies are placed in the well. […] The presence of the alkaline phosphatase-linked secondary antibody causes cleavage of the phosphate, yielding the yellow p-nitrophenolate anion, which can be quantified using spectrophotometric techniques.
Graphs A, B, and C in FIG. 21(a) show the measured titers of total antibody Ig (A), IgM (B), and IgG (C) type antibodies in five mice immunized with conjugate 17c. […]

Compound	inhibition of MBr1 binding to MCF-7 cells [1]	inhibition of reactivity of MAb MBr1 with breast cancer cell lines such as MCF-7 [1] [%]	inhibition of binding of antisera to globo H antigen 2 [2]	binding to mAb MBr1 [3]	binding to mAb MBr1 ([3]; listed as 1b)	reactivity with MBr1 monoclonal antibody, β-form relative to the other form [4] [times]	IgG response [5]	IgM response [5]
Fuca1→GalB1→3GalNAcB1→3Galα1→4GlB1→4GcB1→1Cer [compound 2]	inhibited its binding to MCF-7 cells	98	complete inhibition	bind to the murine monoclonal antibody (mAb) MBr1	bind to the monoclonal antibody MBr1	10	–	–
Fucα1→2GalB1→3GalNAcα1→3Galα1→4GalB1→1Cer [α-linkage preparation]	–	6	–	–	–	–	–	–
CCCCCCCCCCCCCC=C[C@@H](O)[C@@H](CO[C@@H]1O[C@H](CO)[C@@H](O[C@@H]2O[C@H](CO)[C@H](O)[C@H](O)[C@H]2O[C@@H]2O[C@@H](C)[C@@H](O)[C@@H](O)[C@@H]2O)[C@H](O[C@@H]2O[C@@H](C)[C@@H](O)[C@@H](O)[C@@H]2O)[C@H]1NC(C)=O)NC(=O)CCCCCCCCCCCCCCC [32c, (3R)-Hydroxy-(2R)-hexadecanamido-4-octadecenyl-[[[(6-deoxy-a-L-galactopyranosyl)-(1→2)]-(b-D-galactopyranosyl)-(1→4)]-(6-deoxy-a-L-galactopyranosyl)-(1→3)]-2-deoxy-2-acetamido-b-D-glucopyranose]	–	–	–	–	–	–	No mice showed any IgG response	Most mice showed only a weak IgM response
